Earlier results as cited in patent US9974767B2, “Statins in the treatment of muscular dystrophies and myopathies” (University of Washington, priority 2014, dated 2018).

settings: food intake; cited from earlier work

SMILES | absorption when consumed with food
COCc1c(C(C)C)nc(C(C)C)c(/C=C/[C@@H](O)C[C@@H](O)CC(=O)O)c1-c1ccc(F)cc1 [cerivastatin] | not affected
CC(C)n1c(/C=C/C(O)CC(O)CC(=O)O)c(-c2ccc(F)cc2)c2ccccc21 (centres unmarked) [fluvastatin] | reduced absorption
CC[C@H](C)C(=O)O[C@H]1C[C@@H](C)C=C2C=C[C@H](C)[C@H](CC[C@@H]3C[C@@H](O)CC(=O)O3)[C@H]21 [lovastatin] | more efficiently absorbed
CC[C@H](C)C(=O)O[C@H]1C[C@H](O)C=C2C=C[C@H](C)[C@H](CC[C@@H](O)C[C@@H](O)CC(=O)O)[C@H]21 [pravastatin] | reduced absorption
CC(C)c1nc(N(C)S(C)(=O)=O)nc(-c2ccc(F)cc2)c1/C=C/[C@@H](O)C[C@@H](O)CC(=O)O [rosuvastatin] | not affected
